Measurements as given in patent publication US12649750B2, “Macrocyclic compounds, compositions, and methods of using thereof” (Sionna Therapeutics Inc., priority 2022, dated 2026).

Molecular target: T1, NBD1 (Homo sapiens, UniProt P13569)
T1 construct: Purified recombinant NBD1 was produced using previously described methods; made in house
Assay: Aggregation analysis using differential static light scattering (DSLS), thermal stability of NBD1 (ΔTagg)
Assay type: binding
Conditions: ΔTagg versus DMSO control, NBD1 0.2 mg/ml
Outline: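 Purified recombinant NBD1 at 0.2 mg/ml in 50 mM Tris-HCl, 150 mM NaCl, 5 mM MgCl2, 2 mM ATP, 2 mM DTT, pH 7.6, 1% glycerol, with compound, heated 1° C./min to 70° C. under light-scattering monitoring. Tagg taken at curve inflection; ΔTagg is compound Tagg minus mean DMSO-control Tagg, binned A (≤5° C.), B (>5-≤10° C.), C (>10-≤25° C.).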

T1 sequence (P13569 423-646 limits assumed): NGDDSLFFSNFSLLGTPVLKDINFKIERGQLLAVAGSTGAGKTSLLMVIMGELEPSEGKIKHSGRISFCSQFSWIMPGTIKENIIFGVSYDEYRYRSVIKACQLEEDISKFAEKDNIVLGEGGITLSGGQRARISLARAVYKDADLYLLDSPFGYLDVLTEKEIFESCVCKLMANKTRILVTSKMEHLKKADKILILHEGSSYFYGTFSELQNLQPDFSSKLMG

O=C(O)CCc1cccc(C2CCCCCCS(=O)(=O)CCc3c(c(F)cc4[nH]ccc34)Oc3ccc(F)c(c3)-c3ncc2[nH]3)c1 (centres unmarked) [Compound 35, 3-[3-(23,29-Difluoro-13,13-dioxo-25-oxa-13λ6-thia-3,20,31-triazapentacyclo[24.3.1.12,5.016,24.017,21]hentriaconta-1(30),2,4,16,18,21,23,26,28-nonaen-6-yl)phenyl]propanoic Acid]
DSLS 3D (100 μM ΔT): C (a value greater than 10 °C and less than or equal to 25 °C is marked “C”)

O=C(O)CCc1cccc(C2CCCCCS(=O)(=O)CCc3c(c(F)cc4[nH]ccc34)Oc3ccc(F)c(c3)-c3ncc2[nH]3)c1 (centres unmarked) [Compound 36, 3-[3-(22,28-Difluoro-12,12-dioxo-24-oxa-12λ6-thia-3,19,30-triazapentacyclo[23.3.1.12,5.015,23.016,20]triaconta-1(29),2,4,15,17,20,22,25,27-nonaen-6-yl)phenyl]propanoic Acid]
DSLS 3D (100 μM ΔT): C (a value greater than 10 °C and less than or equal to 25 °C is marked “C”)

CN1CCS(=O)(=O)CCC(C)(c2cccc(CCC(=O)O)c2)c2cnc([nH]2)-c2cc(ccc2F)Oc2c(F)cc3[nH]ccc3c2CC1=O (centres unmarked) [Compound 38, 3-[3-(22,28-Difluoro-6,12-dimethyl-9,9,13-trioxo-24-oxa-9λ6-thia-3,12,19,30-tetrazapentacyclo[23.3.1.12,5.015,23.016,20]triaconta-1(29),2,4,15,17,20,22,25,27-nonaen-6-yl)phenyl]propanoic Acid]
DSLS 3D (100 μM ΔT): C (a value greater than 10 °C and less than or equal to 25 °C is marked “C”)

CN1CCS(=O)(=O)CCC(C)(c2cccc(CCC(=O)O)c2)c2cnc([nH]2)-c2cc(ccc2F)Oc2c(F)cc3[nH]ccc3c2CCC1=O (centres unmarked) [Compound 39, 3-[3-(23,29-Difluoro-6,12-dimethyl-9,9,13-trioxo-25-oxa-9λ6-thia-3,12,20,31-tetrazapentacyclo[24.3.1.12,5.016,24.017,21]hentriaconta-1(30),2,4,16,18,21,23,26,28-nonaen-6-yl)phenyl]propanoic Acid]
DSLS 3D (100 μM ΔT): B (a value above 5 °C and less than or equal to 10 °C is marked “B”)

CC1(C)CCCC(C)(c2cccc(CCC(=O)O)c2)c2csc(n2)-c2cc(ccc2F)Oc2c(F)cc3[nH]ccc3c2CCS(=O)(=O)C1 (centres unmarked) [Compound 49, 3-[3-(22,28-Difluoro-6,10,10-trimethyl-12,12-dioxo-24-oxa-3,12lambda6-dithia-19,30-diazapentacyclo[23.3.1.12,5.015,23.016,20]triaconta-1(29),2(30),4,15,17,20,22,25,27-nonaen-6-yl)phenyl]propanoic acid]
DSLS 3D (100 μM ΔT): C (a value greater than 10 °C and less than or equal to 25 °C is marked “C”)

CCOC(=O)[C@@H](C)Cc1cccc(C2CCCC(C)(C)CS(=O)(=O)CCc3c(c(F)cc4[nH]ccc34)C(=O)c3cccc(c3)-c3ccn2n3)c1 (stereo partly drawn) [Compound 161, Ethyl (2S)-3-[3-(22-fluoro-10,10-dimethyl-12,12,24-trioxo-12λ6-thia-5,19,30-triazapentacyclo[23.3.1.12,5.015,23.016,20]triaconta-1(29),2(30),3,15,17,20,22,25,27-nonaen-6-yl)phenyl]-2-methyl-propanoate]
DSLS 3D (100 μM ΔT): A (an ΔTagg value less than or equal to 5 °C is marked “A”)

C[C@H](Cc1cccc([C@@]2(C)CCCC(C)(C)CS(=O)(=O)CCc3c(c(F)c(F)c4[nH]ccc34)S(=O)(=O)c3ccnc(c3)-c3nc2nn3C)c1)C(=O)O [Compound 301, (2R)-3-[3-[(6R)-21,22-difluoro-3,6,10,10-tetramethyl-12,12,24,24-tetraoxo-12λ6,24λ6-dithia-3,4,19,28,30-pentazapentacyclo[23.3.1.12,5.015,23.016,20]triaconta-1(29),2(30),4,15,17,20,22,25,27-nonaen-6-yl]phenyl]-2-methyl-propanoic Acid]
DSLS 3D (100 μM ΔT): A (an ΔTagg value less than or equal to 5 °C is marked “A”)

Cn1nc2nc1-c1cc(ccc1F)Sc1c(F)cc3[nH]ccc3c1CCS(=O)(=O)CC(C)(C)CCC[C@]2(C)c1cccc([C@H](O)CO)c1 [Compound 302A, (1S)-1-[3-[(6R)-22,28-Difluoro-3,6,10,10-tetramethyl-12,12-dioxo-12λ6,24-dithia-3,4,19,30-tetrazapentacyclo[23.3.1.12,5.015,23.016,20]triaconta-1(29),2(30),4,15,17,20,22,25,27-nonaen-6-yl]phenyl]ethane-1,2-diol]
DSLS 3D (100 μM ΔT): B (a value above 5 °C and less than or equal to 10 °C is marked “B”)

Cn1nc2nc1-c1cc(ccc1F)Sc1c(F)c(F)c3[nH]ccc3c1CCS(=O)(=O)CC(C)(C)CCC[C@]2(C)c1cccc(CC2(C(=O)O)CC2)c1 [Compound 303A, 1-[[3-[(6R)-21,22,28-Trifluoro-3,6,10,10-tetramethyl-12,12-dioxo-12λ6,24-dithia-3,4,19,30-tetrazapentacyclo[23.3.1.12,5.015,23.016,20]triaconta-1(29),2(30),4,15,17,20,22,25,27-nonaen-6-yl]phenyl]methyl]cyclopropanecarboxylic acid]
DSLS 3D (100 μM ΔT): B (a value above 5 °C and less than or equal to 10 °C is marked “B”)

C[C@@H](Cc1cccc([C@@]2(C)CCCC(C)(C)CS(=O)(=O)CCc3c(c(F)c(F)c4[nH]ccc34)Cc3ccnc(c3)-c3nc2nn3C)c1)C(=O)O [Compound 304, (2S)-3-[3-[(6R)-21,22-Difluoro-3,6,10,10-tetramethyl-12,12-dioxo-12λ6-thia-3,4,19,28,30-pentazapentacyclo[23.3.1.12,5.015,23.016,20]triaconta-1(29),2(30),4,15,17,20,22,25,27-nonaen-6-yl]phenyl]-2-methyl-propanoic Acid]
DSLS 3D (100 μM ΔT): B (a value above 5 °C and less than or equal to 10 °C is marked “B”)

C[C@H](Cc1cccc([C@@]2(C)CCCC(C)(C)CS(=O)(=O)CCc3c(c(F)c(F)c4[nH]ccc34)Cc3ccnc(c3)-c3nc2nn3C)c1)C(=O)O [Compound 305, (2R)-3-[3-[(6R)-21,22-Difluoro-3,6,10,10-tetramethyl-12,12-dioxo-12λ6-thia-3,4,19,28,30-pentazapentacyclo[23.3.1.12,5.015,23.016,20]triaconta-1(29),2(30),4,15,17,20,22,25,27-nonaen-6-yl]phenyl]-2-methyl-propanoic acid]
DSLS 3D (100 μM ΔT): B (a value above 5 °C and less than or equal to 10 °C is marked “B”)

Cn1nc2nc1-c1cc(ccn1)Cc1c(F)c(F)c3[nH]ccc3c1CCS(=O)(=O)CC(C)(C)CCC[C@]2(C)c1cccc(CC2(C(=O)O)CC2)c1 [Compound 306, 1-[[3-[(6R)-21,22-Difluoro-3,6,10,10-tetramethyl-12,12-dioxo-12λ6-thia-3,4,19,28,30-pentazapentacyclo[23.3.1.12,5.015,23.016,20]triaconta-1(29),2(30),4,15,17,20,22,25,27-nonaen-6-yl]phenyl]methyl]cyclopropanecarboxylic Acid]
DSLS 3D (100 μM ΔT): A (an ΔTagg value less than or equal to 5 °C is marked “A”)

Cn1nc2nc1-c1cc(ccn1)Cc1c(F)c(F)c3[nH]ccc3c1CCS(=O)(=O)CC(C)(C)CCC[C@]2(C)c1cccc(CC(C)(C)C(=O)O)c1 [Compound 307, 3-[3-[(6R)-21,22-Difluoro-3,6,10,10-tetramethyl-12,12-dioxo-12λ6-thia-3,4,19,28,30-pentazapentacyclo[23.3.1.12,5.015,23.016,20]triaconta-1(29),2(30),4,15,17,20,22,25,27-nonaen-6-yl]phenyl]-2,2-dimethyl-propanoic Acid]
DSLS 3D (100 μM ΔT): A (an ΔTagg value less than or equal to 5 °C is marked “A”)

Cn1nc2nc1-c1cc(ccn1)Sc1c(F)c(F)c3[nH]ccc3c1CCS(=O)(=O)CC(C)(C)CCC[C@]2(C)c1cccc(CC2(C(=O)O)CC2)c1 [Compound 308, 1-[[3-[(6R)-21,22-difluoro-3,6,10,10-tetramethyl-12,12-dioxo-12λ6,24-dithia-3,4,19,28,30-pentazapentacyclo[23.3.1.12,5.015,23.016,20]triaconta-1(29),2(30),4,15,17,20,22,25,27-nonaen-6-yl]phenyl]methyl]cyclopropanecarboxylic acid]
DSLS 3D (100 μM ΔT): B (a value above 5 °C and less than or equal to 10 °C is marked “B”)

Cn1nc2nc1-c1cc(ccn1)S(=O)(=O)c1c(F)c(F)c3[nH]ccc3c1CCS(=O)(=O)CC(C)(C)CCC[C@]2(C)c1cccc(CC2(C(=O)O)CC2)c1 [Compound 310, 1-[[3-[(6R)-21,22-difluoro-3,6,10,10-tetramethyl-12,12,24,24-tetraoxo-12λ6,24λ6-dithia-3,4,19,28,30-pentazapentacyclo[23.3.1.12,5.015,23.016,20]triaconta-1(29),2(30),4,15,17,20,22,25,27-nonaen-6-yl]phenyl]methyl]cyclopropanecarboxylic acid]
DSLS 3D (100 μM ΔT): A (an ΔTagg value less than or equal to 5 °C is marked “A”)

Cn1nc2nc1-c1cc(ccn1)Cc1c(F)cc3[nH]ccc3c1CCS(=O)(=O)CC(C)(C)CCC[C@]2(C)c1cccc(C[C@@H](O)CO)c1 [Compound 311, (2R)-3-[3-[(6R)-22-Fluoro-3,6,10,10-tetramethyl-12,12-dioxo-12λ6-thia-3,4,19,28,30-pentazapentacyclo[23.3.1.12,5.015,23.016,20]triaconta-1(29),2(30),4,15,17,20,22,25,27-nonaen-6-yl]phenyl]propane-1,2-diol]
DSLS 3D (100 μM ΔT): A (an ΔTagg value less than or equal to 5 °C is marked “A”)

Cn1nc2nc1-c1cc(ccn1)Cc1c(F)cc3[nH]ccc3c1CCS(=O)(=O)CC(C)(C)CCC[C@]2(C)c1cccc(C[C@H](O)CO)c1 [Compound 312, (2S)-3-[3-[(6R)-22-Fluoro-3,6,10,10-tetramethyl-12,12-dioxo-12λ6-thia-3,4,19,28,30-pentazapentacyclo[23.3.1.12,5.015,23.016,20]triaconta-1(29),2(30),4,15,17,20,22,25,27-nonaen-6-yl]phenyl]propane-1,2-diol]
DSLS 3D (100 μM ΔT): A (an ΔTagg value less than or equal to 5 °C is marked “A”)
